Experimental data taken from EP0895778A2, “Cosmetic composition” (Ajinomoto Co., Inc., priority 1997, dated 1999).
Structures can show the parent of a compound that is named as a salt.

How the values were obtained:
skin = format: in vivo, New Zealand white rabbits; conditions: 0.3 ml of aqueous 1 % solution, patch 24 hours, observed 24 hours; four male rabbits
Procedure: (§1) The primary irritation of the skin and ocular mucous membranes by some test compounds mentioned below was checked according to the test methods mentioned below.
A patch test plaster, into which 0.3 ml of an aqueous 1 % solution of a test compound had been infiltrated, was airtightly stuck on each of four male New Zealand white rabbits and kept as such for 24 hours. […] The compounds tested were evaluated on the basis of the following criteria.

ocular mucous membranes = format: in vivo, New Zealand white rabbits; conditions: 0.1 ml aqueous solution dropped into eyelid bag, checked 24 hours after; four male rabbits
Procedure: as §1
The lower eyelids of each of four male New Zealand white rabbits were formed into bags, into which was dropped 0.1 ml of an aqueous surfactant solution, and the upper and lower eyelids were lightly ligated. 24 hours after the dropping, the irritation of the ocular mucous membranes of each rabbit was checked according to the Draize's points mentioned below. The compound tested was evaluated on the basis of the following criteria.

Row | Structure (SMILES) | Primary Skin Irritation (skin) | Primary Mucous Membrane Irritation (ocular mucous membranes)
1 | CCCCCCCCCCCCOCC(O)CNCCCC[C@H](N)C(=O)O (stereo partly drawn) [Compound of Production Example 5, Nε-(2-hydroxy-3-dodecyloxy)propyl-L-lysine hydrochloride] | Minor (Less than 2) | Minor (Less than 10)
2 | CCCCCCCCCCC(O)CN[C@@H](CCCNC(=N)N)C(=O)O.Cl (stereo partly drawn) [Compound of Production Example 7, N-(2-hydroxydodecyl)-L-arginine hydrochloride] | Minor (Less than 2) | Minor (Less than 10)
3 | CCCCCCCCCCCCCCCCCC[N+](C)(C)C.[Cl-] [Stearyltrimethylammonium Chloride, reference compound] | Heavy (4 or more) | Moderate (20 to less than 50)
